Laboratory results taken from patent US10676465B2, “GLP-1 receptor agonists and uses thereof” (Pfizer Inc., priority 2018, dated 2020).
Like-named read-outs stand apart in the source and are kept apart here.

What was measured:
human GLP-1R [1] = molecular target: human GLP-1R (Homo sapiens, UniProt P43220, G168S); assay: CHO GLP-1R Clone H6 - Assay 1 (HTRF cAMP agonist assay); format: cell-based; settings: for EC50: CHO GLP-1R Clone H6, cAMP HTRF, geometric mean; for Emax / Assay 1 Emax (%): CHO GLP-1R Clone H6, arithmetic mean, relative to saturating GLP-1 (1 μM)
human GLP-1R [2] = molecular target: human GLP-1R (Homo sapiens (Human), UniProt P43220, L260F); assay: CHO GLP-1R Clone C6 - Assay 2 (HTRF cAMP agonist assay, low receptor density); settings: for Emax: read-out: Assay 2 Emax (%), CHO GLP-1R Clone C6 (low receptor density)
[3] = Assay 2 EC50 (nM), CHO GLP-1R Clone C6 (low receptor density), cAMP HTRF, geometric mean
[4] = arithmetic mean, relative to saturating GLP-1 (1 μM)
[5] = read-out: Assay 2 EC50, CHO GLP-1R Clone C6 (low receptor density), cAMP HTRF, geometric mean
[6] = EC50 in Assay 2, CHO GLP-1R Clone C6, cAMP, geometric mean of replicates

human GLP-1R (Homo sapiens (Human), UniProt P43220, L260F), sequence (P43220 24-463 L260F): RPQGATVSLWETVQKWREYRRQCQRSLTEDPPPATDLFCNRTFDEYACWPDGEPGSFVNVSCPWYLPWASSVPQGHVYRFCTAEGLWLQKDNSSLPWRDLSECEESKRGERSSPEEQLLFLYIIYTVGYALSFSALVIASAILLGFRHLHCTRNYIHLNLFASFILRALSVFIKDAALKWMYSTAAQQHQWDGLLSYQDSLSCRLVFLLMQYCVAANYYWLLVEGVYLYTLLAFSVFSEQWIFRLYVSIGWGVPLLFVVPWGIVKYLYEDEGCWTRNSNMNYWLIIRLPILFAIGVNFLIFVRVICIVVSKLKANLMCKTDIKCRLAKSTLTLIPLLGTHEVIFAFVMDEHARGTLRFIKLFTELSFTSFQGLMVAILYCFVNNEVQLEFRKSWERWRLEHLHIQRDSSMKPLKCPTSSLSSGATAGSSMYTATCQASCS
human GLP-1R (Homo sapiens, UniProt P43220, G168S), sequence (P43220 24-463 G168S limits assumed): as the sequence (P43220 24-463 L260F) above, with G145S, F237L counted along it

EC50 (human GLP-1R [1])	Emax (human GLP-1R [1])	Compound	other results
73 nM	–	CC1(c2ccc(C#N)cc2F)Oc2cccc(C3CCN(Cc4nc5ccc(C(=O)O)cc5n4C[C@@H]4CCO4)CC3)c2O1 (single isomer, unassigned) [Example 9]	Assay 1 Emax (%) (human GLP-1R [1]): 88%; EC50 (human GLP-1R [2]; [3]): 1600 nM; Assay 2 Emax (%) (human GLP-1R [2]; CHO GLP-1R Clone C6 (low receptor density), arithmetic mean, relative to saturating GLP-1 (1 μM)): 90%
–	99%	CC1(c2ccc(Cl)cn2)Oc2cccc(C3CCN(Cc4nc5ccc(C(=O)O)cc5n4C[C@@H]4CCO4)CC3)c2O1 (single isomer, unassigned) [Example 10]	Emax (human GLP-1R [2]; [4]): 96%
290 nM	78%	COCCn1c(CN2CCC(c3cccc4c3OC(C)(c3cccnc3)O4)CC2)nc2ccc(C(=O)O)cc21 (stereo not shown) [Example 11, 1-(2-Methoxyethyl)-2-({4-[2-methyl-2-(pyridin-3-yl)-1,3-benzodioxol-4-yl]piperidin-1-yl}methyl)-1H-benzimidazole-6-carboxylic Acid]	–
480 nM	87%	COCCn1c(CN2CCC(c3cccc4c3OC(C)(c3cccc(C(F)(F)F)c3)O4)CC2)nc2ccc(C(=O)O)cc21 (stereo not shown) [Example 28, 1-(2-methoxyethyl)-2-[(4-{2-methyl-2-[3-(trifluoromethyl)phenyl]-1,3-benzodioxol-4-yl}piperidin-1-yl)methyl]-1H-benzimidazole-6-carboxylic acid]	–
760 nM	85%	COCCn1c(CN2CCC(c3cccc4c3OC(C)(c3cccc(C)n3)O4)CC2)nc2ccc(C(=O)O)cc21 (stereo not shown) [Example 36, 1-(2-methoxyethyl)-2-({4-[2-methyl-2-(6-methylpyridin-2-yl)-1,3-benzodioxol-4-yl]piperidin-1-yl}methyl)-1H-benzimidazole-6-carboxylic acid]	–
200 nM	83%	COCCn1c(CN2CCC(c3cccc4c3OC(C)(c3cccc(OC)c3)O4)CC2)nc2ccc(C(=O)O)cc21 (stereo not shown) [Example 39, 1-(2-methoxyethyl)-2-({4-[2-(3-methoxyphenyl)-2-methyl-1,3-benzodioxol-4-yl]piperidin-1-yl}methyl)-1H-benzimidazole-6-carboxylic acid]	–
160 nM	78%	CC1(c2ccc(Cl)cc2F)Oc2cccc(C3CCN(Cc4nc5ccc(C(=O)O)cc5n4CCN4CCOCC4)CC3)c2O1 (stereo not shown) [Example 44, 2-({4-[2-(4-chloro-2-fluorophenyl)-2-methyl-1,3-benzodioxol-4-yl]piperidin-1-yl}methyl)-1-[2-(morpholin-4-yl)ethyl]-1H-benzimidazole-6-carboxylic acid]	–
460 nM	90%	CC1(c2ccc(Cl)cc2F)Oc2cccc(C3CCN(Cc4nc5ccc(C(=O)O)cc5n4CCc4ncc[nH]4)CC3)c2O1 (stereo not shown) [Example 74, 2-({4-[2-(4-chloro-2-fluorophenyl)-2-methyl-1,3-benzodioxol-4-yl]piperidin-1-yl}methyl)-1-[2-(1H-imidazol-2-yl)ethyl]-1H-benzimidazole-6-carboxylic acid]	–
230 nM	80%	COCCn1c(CN2CCC(c3cccc4c3OC(C)(c3cccc(C)c3)O4)CC2)nc2ccc(C(=O)O)cc21 (stereo not shown) [Example 85, 1-(2-methoxyethyl)-2-({4-[2-methyl-2-(3-methylphenyl)-1,3-benzodioxol-4-yl]piperidin-1-yl}methyl)-1H-benzimidazole-6-carboxylic acid]	–
570 nM	89%	COCCn1c(CN2CCC(c3cccc4c3OC(C)(c3cccc(C#N)c3)O4)CC2)nc2ccc(C(=O)O)cc21 (stereo not shown) [Example 87, 2-({4-[2-(3-cyanophenyl)-2-methyl-1,3-benzodioxol-4-yl]piperidin-1-yl}methyl)-1-(2-methoxyethyl)-1H-benzimidazole-6-carboxylic acid]	–
> 20000 nM	–	COCCn1c(CN2CCC(c3cccc4c3OC(C)(c3ccccn3)O4)CC2)nc2ccc(C(=O)O)cc21 (stereo not shown) [Example 90, 1-(2-methoxyethyl)-2-({4-[2-methyl-2-(pyridin-2-yl)-1,3-benzodioxol-4-yl]piperidin-1-yl}methyl)-1H-benzimidazole-6-carboxylic acid]	–
–	77%	CC1(c2ccc(Cl)cn2)Oc2cccc(C3CCN(Cc4nc5ccc(C(=O)O)cc5n4C[C@@H]4CCO4)CC3)c2O1 (stereo partly drawn) [Example 95, 2-({4-[2-(5-chloropyridin-2-yl)-2-methyl-1,3-benzodioxol-4-yl]piperidin-1-yl}methyl)-1-[(2S)-oxetan-2-ylmethyl]-1H-benzimidazole-6-carboxylic acid]	–
600 nM	86%	COCCn1c(CN2CCC(c3cccc4c3OC(CO)(c3ccccc3)O4)CC2)nc2ccc(C(=O)O)cc21 (stereo not shown) [Example 102, 2-({4-[2-(hydroxymethyl)-2-phenyl-1,3-benzodioxol-4-yl]piperidin-1-yl}methyl)-1-(2-methoxyethyl)-1H-benzimidazole-6-carboxylic acid]	–

Second part, the compound before the results:

Compound	EC50 (human GLP-1R [1])	Emax (human GLP-1R [1])	other results
COCCn1c(CN2CCN(c3cccc4c3OC(c3ccc(Cl)cc3F)O4)CC2)nc2ccc(C(=O)O)cc21 (single isomer, unassigned) [Example 1, 2-({4-[2-(4-Chloro-2-fluorophenyl)-1,3-benzodioxol-4-yl]piperazin-1-yl}methyl)-1-(2-methoxyethyl)-1H-benzimidazole-6-carboxylic Acid]	880 nM	99%	EC50 (human GLP-1R [2]; [3]): > 20000 nM
COCCn1c(CN2CCN(c3cccc4c3OC(c3ccc(Cl)cc3F)O4)CC2)nc2ccc(C(=O)O)cc21 (single isomer, unassigned) [Example 2, 2-({4-[2-(4-Chloro-2-fluorophenyl)-1,3-benzodioxol-4-yl]piperazin-1-yl}methyl)-1-(2-methoxyethyl)-1H-benzimidazole-6-carboxylic Acid]	6.6 nM	–	Assay 1 Emax (%) (human GLP-1R [1]): 81%; EC50 (human GLP-1R [2]; [3]): 260 nM; Emax (human GLP-1R [2]; [4]): 100%
CC1(c2ccc(C#N)cc2F)Oc2cccc(C3CCN(Cc4nc5ccc(C(=O)O)cc5n4C[C@@H]4CCO4)CC3)c2O1 (single isomer, unassigned) [Example 8]	0.3 nM	92%	EC50 (human GLP-1R [2]; [3]): 3.6 nM; Emax (human GLP-1R [2]; [4]): 91%
COCCn1c(C2CC23CCN(c2cccc4c2OC(C)(c2ccc(Cl)cc2F)O4)CC3)nc2ccc(C(=O)O)cc21 (single isomer, unassigned) [Example 15, 2-{6-[2-(4-Chloro-2-fluorophenyl)-2-methyl-1,3-benzodioxol-4-yl]-6-azaspiro[2.5]oct-1-yl}-1-(2-methoxyethyl)-1H-benzimidazole-6-carboxylic Acid]	> 18000 nM	100%	EC50 (human GLP-1R [2]; [3]): > 20000 nM
COCCn1c(C2CC23CCN(c2cccc4c2OC(C)(c2ccc(Cl)cc2F)O4)CC3)nc2ccc(C(=O)O)cc21 (single isomer, unassigned) [Example 16, 2-{6-[2-(4-Chloro-2-fluorophenyl)-2-methyl-1,3-benzodioxol-4-yl]-6-azaspiro[2.5]oct-1-yl}-1-(2-methoxyethyl)-1H-benzimidazole-6-carboxylic Acid]	7.7 nM	–	Assay 1 Emax (%) (human GLP-1R [1]): 90%; EC50 (human GLP-1R [2]; [3]): 120 nM; Emax (human GLP-1R [2]; [4]): 64%
CCn1cncc1Cn1c(CN2CCC(c3cccc4c3O[C@@](C)(c3ccc(Cl)cc3F)O4)CC2)nc2ccc(C(=O)O)cc21 (single isomer, unassigned) [Example 17, Ammonium 2-({4-[2-(4-chloro-2-fluorophenyl)-2-methyl-1,3-benzodioxol-4-yl]piperidin-1-yl}methyl)-1-[(I-ethyl-1H-imidazol-5-yl)methyl]-1H-benzimidazole-6-carboxylate]	0.079 nM	–	EC50 (human GLP-1R [2]; [5]): 1.1 nM
O=C(O)c1ccc2nc(CN3CCC(c4cccc5c4O[C@@H](c4ccc(Cl)cc4F)O5)CC3)n(C[C@@H]3CCO3)c2c1 [5, free acid, 2-({4-[(2S)-2-(4-Chloro-2-fluorophenyl)-1,3-benzodioxol-4-yl]piperidin-1-yl}methyl)-1-[(2S)-oxetan-2-ylmethyl]-1H-benzimidazole-6-carboxylic Acid]	–	–	EC50 (human GLP-1R [2]; [6]): 25 nM
C[C@]1(c2ccc(Cl)cc2F)Oc2cccc(C3CCN(Cc4nc5ccc(C(=O)O)cc5n4C[C@@H]4CCO4)CC3)c2O1 [7, free acid, 2-({4-[(2S)-2-(4-Chloro-2-fluorophenyl)-2-methyl-1,3-benzodioxol-4-yl]piperidin-1-yl}methyl)-1-[(2S)-oxetan-2-ylmethyl]-1H-benzimidazole-6-carboxylic Acid]	–	–	EC50 (human GLP-1R [2]; [6]): 4.3 nM
COCCn1c(CN2CCN(c3cccc4c3OC(c3ccccc3)O4)CC2)nc2ccc(C(=O)O)cc21 (stereo not shown) [Example 22, 1-(2-methoxyethyl)-2-{[4-(2-phenyl-1,3-benzodioxol-4-yl)piperazin-1-yl]methyl}-1H-benzimidazole-6-carboxylic acid]	> 20000 nM	–	–
COCCn1c(CN2CCN(c3cccc4c3OC(c3ccccc3)O4)CC2)nc2ccc(C(=O)O)cc21 (stereo not shown) [Example 23, 1-(2-methoxyethyl)-2-{[4-(2-phenyl-1,3-benzodioxol-4-yl)piperazin-1-yl]methyl}-1H-benzimidazole-6-carboxylic acid]	680 nM	76%	–
C[C@]1(c2ccc(Cl)cc2F)Oc2cccc(C3CCN(Cc4nc5ccc(C(=O)O)c(F)c5n4C[C@@H]4CCO4)CC3)c2O1 [Example 100, 2-({4-[(2S)-2-(4-chloro-2-fluorophenyl)-2-methyl-1,3-benzodioxol-4-yl]piperidin-1-yl}methyl)-7-fluoro-1[(2S)-oxetan-2-ylmethyl]-1H-benzimidazole-6-carboxylic acid]	–	–	EC50 (human GLP-1R [2]; [5]): 7.6 nM; Emax (human GLP-1R [2]; [4]): 99%
O=C(O)c1ccc2nc(CN3CCC(c4cccc5c4O[C@@H](c4ccc(Cl)cc4F)O5)CC3)n(C[C@@H]3CCO3)c2c1F [Example 101, 2-({4-[(2S)-2-(4-chloro-2-fluorophenyl)-1,3-benzodioxol-4-yl]piperidin-1-yl}methyl)-7-fluoro-1-[(2S)-oxetan-2-ylmethyl]-1H-benzimidazole-6-carboxylic acid]	–	–	EC50 (human GLP-1R [2]; [5]): 19 nM; Emax (human GLP-1R [2]; [4]): 74%
